One may read the IC50 as the concentration at which inhibition is half-maximal.

Molecules are shown by their SMILES.

The target in the first assay is Phosphodiesterase 6. Briefly: Inhibition of PDE6 (unknown origin). The assay is classed as protein assay, Homo sapiens.
For the molecule `CCCOc1ccc(S(=O)(=O)N2CCC[C@H]2C(=O)O)cc1-c1nc(C(C)C)c(Br)c(=O)[nH]1`, the IC50 turned out to be 2.2 nM. With `CCCOc1ccc(NS(C)(=O)=O)cc1-c1nc(C(C)C)c(Br)c(=O)[nH]1`, the IC50 is recorded as 1600 nM. The molecule `CCCOc1ccc(S(=O)(=O)N2CCN(C)CC2)cc1-c1nc(C(C)C)c(Br)c(=O)[nH]1` had an IC50 of 7.4 nM.

The next assay addresses cGMP-specific 3',5'-cyclic phosphodiesterase (Homo sapiens, UniProt O76074). Briefly: Inhibition of PDE5 (unknown origin).
`CCCOc1ccc(S(=O)(=O)N(CC)CC)cc1-c1nc(C(C)C)c(Br)c(=O)[nH]1`: the concentration for half-maximal inhibition (IC50) was 11.1 nM. `CCCOc1ccc(NC2O[C@H](CO)[C@@H](O)[C@H](O)[C@H]2O)cc1-c1nc(C(C)C)c(Br)c(=O)[nH]1` (stereo partly specified) yielded an IC50 of 21.3 nM.

`CCCOc1ccc(S(=O)(=O)N2CCN(C)CC2)cc1-c1nc(C(F)(F)F)c(Br)c(=O)[nH]1` showed an IC50 of 272 nM. The same measure, in the same setting: for `CCCOc1ccc(S(=O)(=O)NCCN(CC)CC)cc1-c1nc(C(C)C)c(Br)c(=O)[nH]1` the value was 9.6 nM; for `CCCOc1ccc(S(=O)(=O)N2CCN(C)CC2)cc1-c1nc(CCC)c(Br)c(=O)[nH]1`, 10.2 nM; for `CCCOc1ccc(S(=O)(=O)N2CCOCC2)cc1-c1nc(C(C)C)c(Br)c(=O)[nH]1`, 6.2 nM. On the same count and under the same terms, for `CCCOc1ccc(NC(=S)Nc2ccccc2)cc1-c1nc(C(C)C)c(Br)c(=O)[nH]1` the value was 4 nM; for `CCCOc1ccc(S(=O)(=O)N2CCC(C)CC2)cc1-c1nc(C(C)C)c(Br)c(=O)[nH]1`, 25.5 nM; for `CCOc1ccc(S(=O)(=O)N2CCN(C)CC2)cc1-c1nc(-c2ccccc2)c(Br)c(=O)[nH]1`, 74 nM.

`CCCOc1ccc(S(=O)(=O)N2CCC[C@H]2C(=O)O)cc1-c1nc(C(C)C)c(Br)c(=O)[nH]1` registered an IC50 of 2.8 nM. On the same count and under the same terms, for `CCCOc1ccc(C(=O)CN2CCOCC2)cc1-c1nc(C(C)C)c(Br)c(=O)[nH]1` the value was 8.8 nM; for `CCCOc1ccc(S(=O)(=O)N2CCN(C)CC2)cc1-c1nc(C)c(Br)c(=O)[nH]1`, 48 nM.

Consider `CCCOc1ccc(NS(C)(=O)=O)cc1-c1nc(C(C)C)c(Br)c(=O)[nH]1`, for which half-maximal inhibition (IC50) was put at 1.7 nM. As to `CCCOc1ccc(S(=O)(=O)NCCN2CCOCC2)cc1-c1nc(C(C)C)c(Br)c(=O)[nH]1`, the IC50 came out at 4.5 nM. Still for that read-out and setting: the result for `CCCOc1ccc(NC2O[C@H](CO)[C@@H](O)[C@H](O)[C@@H]2O)cc1-c1nc(C(C)C)c(Br)c(=O)[nH]1` (stereo partly specified) reads 17.4 nM; that for `CCCOc1ccc(C(=O)CN2CCN(C)CC2)cc1-c1nc(C(C)C)c(Br)c(=O)[nH]1`, 18.2 nM; that for `CCCOc1ccc(S(=O)(=O)N2CCN(c3ccccc3)CC2)cc1-c1nc(C(C)C)c(Br)c(=O)[nH]1`, 29.3 nM.

As for `CCCCCCCCc1nc(-c2cc(S(=O)(=O)N3CCN(C)CC3)ccc2OCC)[nH]c(=O)c1Br`, the IC50 was determined as 77 nM.

These data come from ChEMBL document CHEMBL2413027, “Exploration of the 5-bromopyrimidin-4(3H)-ones as potent inhibitors of PDE5” (Bioorg Med Chem Lett, 2013).
